The results in this text go back to US20040127567A1, “Novel methods for treating disorders in which docosahexaenoic acid (DHA) levels are affected” (Beth Israel Deaconess Medical Center, Inc., priority 1998, published 2004).

For assay [1], the system named is CFTR−/− mice. Briefly: Pancreatic morphology / luminal diameter in CFTR−/− mice. The assay is classed as in vivo, mouse. The following applies: for Effect on pancreas morphology (in words): 40 mg/day for one week (fish oil: dose equivalent to 40 mg DHA, 60 mg EPA, 15 mg LNA), vs Peptamen alone. The procedure:
CF and WT mice were fed as outlined in the method section above. Dilation of the pancreatic duct lumen is a hallmark feature of cystic fibrosis. Therefore, the luminal area was measured from a minimum of 30 images from CF knockout mice treated with Peptamen™ alone or Peptamen™ plus 40 mg/day of DHA as well as wild type (WT) mice treated with Peptamen™ alone beginning at the time of weaning. Animals were sacrificed at 37 days of age and each pancreas fixed in glutaraldehyde. Analysis was performed using NIH Image software. The results are outlined in FIG. 1. […] No other treatment to date has shown tissue improvements at a morphological level.
The morphology of various organs were also studied. Sample preparation were carried out as follows: 1-2 cm of ileum adjacent to the cecum was fixed in formalin, embedded in paraffin, cut in cross-section, and stained with hematoxylin/eosin. For pancreatic analyses, 2-3 mm pieces of pancreas were fixed for 1.5 h in 2% glutaraldehyde in 0.2M cacodylate buffer. Tissue samples were then washed in 0.2M cacodylate buffer and subsequently postfixed for 1 h in 1% osmium tetroxide in 0.1 M cacodylate buffer. Tissue was embedded in epon and thick sections stained with 1% toluidine blue.
Morphometry: For measurement of ileal villus height or pancreatic luminal diameter, multiple images were randomly taken at 200× using a Nikon Microphot-SA microscope equipped with a Diagnostic Instruments, Inc., Spot Digitizing System. Images were examined in a blinded fashion by two independent observers. Quantitation was performed using NIH Imaging Software. The differences between the means in the groups tested were evaluated using the Student's t-test.
Tissue samples from these mice were prepared for light microscopy and sections analyzed at 200×. Pancreatic acinar cell morphology of CFTR−/− control mice is characterized by massive luminal dilatation and zymogen granule accumulation at the apical pole of the acinar cells (data not shown), two hallmark features of cystic fibrosis pathology (W. V. L. Go. (1993) Pancreas: Biology, Pathobiology, and Disease, Chapter 54:1041-1081). […] Luminal diameter is approximately 9fold greater in CFTR−/− mice. […] There also appeared to be a decrease in ductal plugs DGA-fed CFTR−/− mice; however, this observation was not subjected to morphometric analysis.
Additional experiments were performed to observe the effect of administering the DHA precursor docosapentaenoic acid (DPA,22:5n-3) on DHA levels. Wild-type and CFTR−/− mice were fed with 40 mg of DPA per day for 7 days and fatty acids in pancreas and lung analyzed by GC/MS. One to 2 mm pieces of pancreas from both wild-type and CFTR−/−were fixed for 1.5 h in […] in 0.2M cacodylate buffer and processed for morphometric analysis.

Assay [2] has as its system CFTR−/− mice. Briefly: Fatty acid levels (GC/MS) in pancreas and lung cells of CFTR−/− mice fed n-3 fatty acids. The conditions noted are these: for DHA level in pancreas: CFTR-/- mice, mean ± S.D.; for DHA level in pancreas / Change in phospholipid/membrane-bound AA (in words) / Change in phospholipid/membrane-bound DHA (in words): 40 mg/day for one week (fish oil: dose equivalent to 40 mg DHA, 60 mg EPA, 15 mg LNA); for Change in phospholipid/membrane-bound AA (in words) / Change in phospholipid/membrane-bound DHA (in words): vs Peptamen alone. It is filed as in vivo, mouse. The procedure: Mouse pancreatic acinar and lung cell suspensions were prepared from wild type (n=3) and CFTR−/− mice (n=3) by enzymatic and mechanical dissociation. In addition, brain, kidney, heart, spleen, and blood were sonicated in 0.3M sucrose buffer. Membrane lipids were extracted from cell and organ preparations with 20 volumes of chloroform-methanol 2:1 (v/v), transmethylated with 0.5 mL of 0.1 N methanolic-NaOH/BF3 reagent, and the resulting fatty acid methyl esters analyzed by gas chromatography/mass spectrometry (GC/MS). In a different set of experiments, lipids were fractionated by aminopropyl column chromatography into triglycerides, cholesterol esters, and phosphoglycerides and the fatty acid composition of each lipid class determined by a combination of enzymatic hydrolysis, transmethylation, and GC/MS.
Cystic fibrosis (UNC strain) and wild type mice (12-20 grams body weight) were fed with a complete liquid enteral formulation (Peptamen™, Nestle Clinical Nutrition, Inc.) supplemented with different quantities of the DHA-containing formulation Neuromins (Nature's Way Products Inc., Springville, Utah). DHA content in the Neuromins formulation was 100 mg per 500 mg of formulation. Mice were fed once a day at about 11 a.m., seven days a week with 20 ml of Peptamen™ supplemented with the various amounts of either Neuramins, free DHA (Sigma Chemical Co., MO) or DHA-ethyl ester (Nu-Check-Prep, Inc. MN) ranging from 0.5 mg/day of DHA to 40 mg/day of DHA.
Lung and acinar cells were isolated from a CF mouse fed with DHA formula (mouse-1, 40 mg/day DHA). The pellets (0.5 mL for pancreas cell homogenate and 0.6 mL for lung cell homogenate) were extracted with 3 mL of chloroform-methanol 2:1 (v/v). The resulting emulsion was vortexed, centrifuged at 800 g for 3 min., and the lower phase aspirated. The residual upper phase was partitioned again with 3 mL of chloroform-methanol 2:1 (v/v), the lower phase aspirated and both lower phases combined. Fractions were evaporated to dryness, processed for fatty acid methyl esters (FAME) and were analyzed by GC-MS analysis. Aliquots of 10 μL of 17:0 methyl ester solution in hexane [1 μg/μL] were added to the samples after methylation.
(§1) Lung and acinar cells were isolated from a CF and a wild-type (WT) mouse fed with DHA formula. The pellets (0.5 mL for pancreas cell homogenate and 0.6 mL for lung cell homogenate) were extracted with 3 mL of chloroform-methanol 2:1 (v/v). The resulting emulsion was vortexed, centrifuged at 800 g for 3 min., and the lower phase aspirated. The residual upper phase was partitioned again with 3 mL of chloroform-methanol 2:1 (v/v), the lower phase aspirated and both lower phases combined. Fractions were evaporated to dryness, processed for FAME and analyzed by GC-MS. Aliquots of 20 μL of 17:0 in chloroform-methanol 2:1 (v/v) were added to the samples before methylation.
as §1, with “from” for “from a”, “mice” for “and a wild-type (WT) mouse”, “different doses of DHA, i.e., 0.5 mg/day, 2.0 mg/day, 10 mg/day or 40 mg/day DHA.” for “DHA formula.”, “pellets” for “pellets (0.5 mL for pancreas cell homogenate and 0.6 mL for lung cell homogenate)”, “30” for “20”
CFTR−/− mice were prepared as described in Example 1. Both CFTR−/− mice and wild type mice were euthanized with carbon dioxide, and cell suspensions from pancreas and lung isolated.

Where [3] appears, read: CF mice, 40 mg/day DHA (dose series, Table 5).
The mark [4] stands for this setting: CF mouse-1, 40 mg/day DHA, day 30 to day 37.
Setting [5] is: CF mouse-2, 40 mg/day DHA, day 24 to day 47.
[6] abbreviates: CFTR (-/-) mice, 40 mg DPA per day for 7 days.
Where [7] appears, read: CFTR−/− mice, listed as 18:3n-3.

Values joined by “and” are separate entries in the source; they are usually repeats but may differ in a detail not shown here. Identical values can stand only once. “Also recorded” adds a separate entry of the source.

Turning to `CC/C=C\C/C=C\C/C=C\C/C=C\C/C=C\C/C=C\CCC(=O)O` [DHA, docosahexaenoic acid], the “Decrease in pancreatic luminal diameter” value in assay [1] (oral 40 mg/day for 7 days, p<0.0001, n=6) is 63%. Also, in assay [2] (CF mice, 0.5 mg/day DHA), the “20:4n-6 in pancreas” value is listed as 315 nmoles per total extract, the “22:4n-6 in pancreas” value is reported as 8.3 nmoles per total extract and the “22:6n-3 in pancreas” value came out at 39 nmoles per total extract. In assay [2] (CF mice, 2 mg/day DHA), the “20:4n-6 in pancreas” value is 233 nmoles per total extract, the “22:4n-6 in pancreas” value came to 7.2 nmoles per total extract and the “22:6n-3 in pancreas” value came out at 43 nmoles per total extract. Besides, in assay [2] (CF mice, 10 mg/day DHA), the “20:4n-6 in pancreas” value is 177 nmoles per total extract, the “22:4n-6 in pancreas” value is on record as 3.7 nmoles per total extract and the “22:6n-3 in pancreas” value stood at 67 nmoles per total extract. Besides, in assay [2] (setting [3]), the “20:4n-6 in pancreas” value worked out at 67 nmoles per total extract, the “22:4n-6 in pancreas” value is reported as 0.4 nmoles per total extract and the “22:6n-3 in pancreas” value worked out at 148 nmoles per total extract. Further, in assay [2] (setting [4]), the “20:4n-6 in lung” value stood at 75 nmoles per total extract, the “20:4n-6 in pancreas” value is on record as 144^1 nmoles per total extract, the “22:4n-6 in lung” value was 12 nmoles per total extract and the “22:4n-6 in pancreas” value stood at 1.5 nmoles per total extract. Also, in assay [2] (setting [4]), the “22:6n-3 in lung” value was found to be 167 nmoles per total extract and the “22:6n-3 in pancreas” value is given as 167 nmoles per total extract. For the same compound, in assay [2] (setting [5]), the “20:4n-6 in lung” value came out at 60 nmoles per total extract; the “20:4n-6 in pancreas” value is 67^1 nmoles per total extract and 67 nmoles per total extract; the “22:4n-6 in lung” value came out at 4.1 nmoles per total extract; the “22:4n-6 in pancreas” value was 0.4 nmoles per total extract. For the same compound, in assay [2] (setting [5]), the “22:6n-3 in lung” value turned out to be 222 nmoles per total extract and the “22:6n-3 in pancreas” value stood at 148 nmoles per total extract. For the same compound, the “DHA level in pancreas” value in assay [2] turned out to be 7.9 ± 1.5 nmol/mg. Also, in assay [2] (CFTR−/− mice, 40 mg DHA/day), the “Increase of DHA levels in pancreas above wild-type levels” value is given as 3 fold.

Regarding `CC/C=C\C/C=C\C/C=C\C/C=C\C/C=C\CCCCCC(=O)O` [DPA, docosapentaenoic acid], the “Improvement in pancreas morphology (pancreatic ductal diameter, presence of plugs)” value in assay [1] (40 mg per day for 7 days) stood at 20%. In assay [2] (setting [6]), the “20:4n-6 in lung” value is given as 5.8 ± 0.9 (17.5) nmoles of fatty acid per mg of protein, the “20:4n-6 in pancreas” value was 5.1 ± 0.6^1 (13.3) nmoles of fatty acid per mg of protein, the “20:5n-3 in lung” value is 15.6 ± 1.1 (0.1) nmoles of fatty acid per mg of protein and the “22:6n-3 in lung” value was 5.5 ± 0.8(4.0) nmoles of fatty acid per mg of protein. Also, the “DHA level in pancreas” value in assay [2] turned out to be 3.7 ± 0.4 nmol/mg.

`CC/C=C\C/C=C\C/C=C\CCCCCCCC(=O)O` [LNA, α-linolenic acid, reference compound]: the “Effect on pancreas morphology (in words)” value in assay [1] is “significant increase in acinar lumen dilatation and plug formation; also recorded: significant increase in ductal dilatation; also recorded: increased acinar lumen dilation and plug formation”; in assay [1] (listed as 18:3n-3), “worsening of the pathological changes in the pancreas”. For the same compound, the “DHA level in pancreas” value in assay [2] is 0.7 ± 0.07 nmol/mg. Besides, the “Change in phospholipid/membrane-bound AA (in words)” value in assay [2] (CFTR−/− mice) is “significant decrease; also recorded: four-fold decrease”; in assay [2] (setting [7]), “significant decrease”. In addition, the figures for the “Change in phospholipid/membrane-bound DHA (in words)” value in assay [2] (CFTR−/− mice) and in assay [2] (setting [7]) were “further decrease; also recorded: two-fold decrease” and “further decrease”, respectively.
